From PMC12281424, “A Rac-specific competitive inhibitor of guanine nucleotide binding reduces metastasis in triple-negative breast cancer” (Cell Reports Medicine, 2025)

Tests used:
breast CAF spheroids = assay: 3D invasion assay; assay type: cell-based, human; details: 10^-5 M
Description: Figure 5 A41 decreases growth and invasiveness of TNBC cells in vitro (A) Representative images of RAC-GTP levels (red) in MDA-MB-468 Luc cells in the absence (CTL) and presence of EHT1864, NSC23766, or A41 (1 h at 10 μM) (left). Luciferase (Luc, green) was used to detect the cells. RAC-GTP mean fluorescence intensity was quantified inside the cell area (right) (n = 31–37 cells from 3 independent experiments; ∗p < 0.05, ∗∗∗p < 0.001) (scale bars: 10 μm). […] (C) Quantification of colony number of indicated cancer cell lines in the presence of A41 (10 μM) expressed as the percentage of control in the absence of A41. Results shown are representative of N > 3 independent experiments. (D) Immunoblot analysis and corresponding quantification of AKT and P44/42 expression and phosphorylation (pAKT, p44/42) in MDA-MB-468 Luc cells in the absence (−) and presence of NSC23766 or A41 (1 h at 10^−5 M). […] (E) 3D invasion assay of MDA-MB-468 Luc and cancer-associated fibroblasts (CAFs) and corresponding quantification (scale bars: 200 μm). […]
3D-spheroids were obtained, according the protocol previously described,[62] by re-suspending cells at a concentration of 1.25 × 10^4 cells/ml in 20% Methyl-cellulose/80% DMEM 10% FBS. […] Invasion was monitored by fully automated Dmi6000b Wide Field Fluorescence Microscope (Leica Microsystems, Wetzlar, Germany) during 48h.

CT26 cells = assay: Colorectal circulating tumor cells model (pulmonary metastasis); assay type: in vivo, mouse; details: 25 mg/kg i.p. daily day 0 to 14
Description: 7-8 weeks-old BALB/c female mice received an intravenous injection through the caudal vein of the cell suspension (CT26 cells, ATCC® CCL-2638™). The volume needed for implantation was loaded in insulin syringes (2x10^5 cells) in 100 μL of phosphate-buffered saline). The anesthetized mice were placed on a warming blanket and were monitored (breathing) until they wake up.

[1] = Ames fluctuation test (7th group); assay type: cell-based
Description: Data S3. Ames-fluctuation assay-A41.
Test Concentration Count Positive Significance Fisher Exact Test

Adrenergic β2 = Adrenergic β2 (Homo sapiens, UniProt P07550); assay: Safety screen; assay type: binding
Description: (§1) Blood cell counts, kinase profiler, safety screen, bacterial cytotoxicity, Ames, micronucleus assays were performed by the company Eurofins (France). The kinase profiler was performed by the company Eurofins (Discovery, Panlab and Cerep).

Melanocortin MC1 = Melanocortin MC1 (Homo sapiens, UniProt Q01726); assay: Safety screen; assay type: binding
Description: Blood cell counts, kinase profiler, safety screen, bacterial cytotoxicity, Ames, micronucleus assays were performed by the company Eurofins (France).

[2] = target: Serotonin (5-Hydroxytryptamine) 5-HT2A (Homo sapiens, UniProt P28223); assay: Safety screen; assay type: binding
Sequence of Serotonin (5-Hydroxytryptamine) 5-HT2A (P28223 whole entry): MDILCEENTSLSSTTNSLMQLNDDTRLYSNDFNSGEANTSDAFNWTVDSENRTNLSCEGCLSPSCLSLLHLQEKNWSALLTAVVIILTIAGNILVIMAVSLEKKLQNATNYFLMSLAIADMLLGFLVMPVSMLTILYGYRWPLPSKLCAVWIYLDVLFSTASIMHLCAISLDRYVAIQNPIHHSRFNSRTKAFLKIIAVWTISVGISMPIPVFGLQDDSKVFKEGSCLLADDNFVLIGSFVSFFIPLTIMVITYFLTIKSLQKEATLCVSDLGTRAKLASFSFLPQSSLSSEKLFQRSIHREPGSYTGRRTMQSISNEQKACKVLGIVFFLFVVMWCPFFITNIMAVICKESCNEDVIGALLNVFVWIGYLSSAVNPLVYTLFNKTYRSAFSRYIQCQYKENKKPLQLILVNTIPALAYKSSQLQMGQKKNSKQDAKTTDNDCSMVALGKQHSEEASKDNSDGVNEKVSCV
Description: as §1

B-Raf(V599E)(h) = B-Raf(V599E)(h) (Homo sapiens, UniProt P15056, V600E); assay: Kinase Profiler; assay type: biochemical
Description: as §1

CaMKI(h) = CaMKI(h) (Homo sapiens, UniProt Q14012); assay: Kinase Profiler; assay type: biochemical
Description: as §1

CLK2(h) = CLK2(h) (Homo sapiens, UniProt P49760); assay: Kinase Profiler; assay type: biochemical
Description: (§2) The kinase profiler was performed by the company Eurofins (Discovery, Panlab and Cerep).

Flt1(h) = Flt1(h) (Homo sapiens, UniProt P17948); assay: Kinase Profiler; assay type: biochemical
Sequence of Flt1(h) (P17948 27-1338): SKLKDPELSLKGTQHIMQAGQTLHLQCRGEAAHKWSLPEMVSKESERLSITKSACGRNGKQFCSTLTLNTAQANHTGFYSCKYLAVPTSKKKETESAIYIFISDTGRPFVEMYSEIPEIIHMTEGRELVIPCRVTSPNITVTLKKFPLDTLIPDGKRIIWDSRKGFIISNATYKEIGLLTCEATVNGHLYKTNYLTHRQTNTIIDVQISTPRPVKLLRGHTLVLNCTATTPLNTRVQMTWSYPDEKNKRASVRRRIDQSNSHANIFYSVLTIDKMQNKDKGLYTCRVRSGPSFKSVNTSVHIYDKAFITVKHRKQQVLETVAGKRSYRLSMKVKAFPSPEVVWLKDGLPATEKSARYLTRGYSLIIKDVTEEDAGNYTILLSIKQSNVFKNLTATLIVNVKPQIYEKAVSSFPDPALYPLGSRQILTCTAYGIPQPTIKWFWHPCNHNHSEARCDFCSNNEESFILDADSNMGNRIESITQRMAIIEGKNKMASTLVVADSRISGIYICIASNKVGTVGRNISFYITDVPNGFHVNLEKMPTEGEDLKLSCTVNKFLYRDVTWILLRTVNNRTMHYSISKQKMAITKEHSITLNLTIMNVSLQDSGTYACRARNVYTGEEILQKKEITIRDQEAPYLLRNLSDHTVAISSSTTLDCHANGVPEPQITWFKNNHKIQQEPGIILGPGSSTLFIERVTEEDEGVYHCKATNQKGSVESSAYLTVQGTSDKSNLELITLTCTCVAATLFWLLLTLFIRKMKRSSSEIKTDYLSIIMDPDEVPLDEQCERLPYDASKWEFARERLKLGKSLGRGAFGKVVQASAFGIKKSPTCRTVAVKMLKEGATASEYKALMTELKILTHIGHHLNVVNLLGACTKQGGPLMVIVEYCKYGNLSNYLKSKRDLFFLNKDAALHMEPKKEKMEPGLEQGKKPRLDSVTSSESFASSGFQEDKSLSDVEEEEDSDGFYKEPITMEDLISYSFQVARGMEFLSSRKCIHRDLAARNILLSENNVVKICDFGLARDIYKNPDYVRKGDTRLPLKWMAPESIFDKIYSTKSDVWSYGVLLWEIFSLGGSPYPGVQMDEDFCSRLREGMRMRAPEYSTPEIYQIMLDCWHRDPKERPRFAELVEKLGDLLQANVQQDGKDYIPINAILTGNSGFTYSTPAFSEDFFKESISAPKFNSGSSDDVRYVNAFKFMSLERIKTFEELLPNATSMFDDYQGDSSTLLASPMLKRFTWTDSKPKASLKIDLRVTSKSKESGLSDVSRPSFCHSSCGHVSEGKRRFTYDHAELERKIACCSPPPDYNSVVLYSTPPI
Description: as §2

Fyn(h) = Fyn(h) (Homo sapiens, UniProt P06241); assay: Kinase Profiler; assay type: biochemical
Sequence of Fyn(h) (P06241 whole entry): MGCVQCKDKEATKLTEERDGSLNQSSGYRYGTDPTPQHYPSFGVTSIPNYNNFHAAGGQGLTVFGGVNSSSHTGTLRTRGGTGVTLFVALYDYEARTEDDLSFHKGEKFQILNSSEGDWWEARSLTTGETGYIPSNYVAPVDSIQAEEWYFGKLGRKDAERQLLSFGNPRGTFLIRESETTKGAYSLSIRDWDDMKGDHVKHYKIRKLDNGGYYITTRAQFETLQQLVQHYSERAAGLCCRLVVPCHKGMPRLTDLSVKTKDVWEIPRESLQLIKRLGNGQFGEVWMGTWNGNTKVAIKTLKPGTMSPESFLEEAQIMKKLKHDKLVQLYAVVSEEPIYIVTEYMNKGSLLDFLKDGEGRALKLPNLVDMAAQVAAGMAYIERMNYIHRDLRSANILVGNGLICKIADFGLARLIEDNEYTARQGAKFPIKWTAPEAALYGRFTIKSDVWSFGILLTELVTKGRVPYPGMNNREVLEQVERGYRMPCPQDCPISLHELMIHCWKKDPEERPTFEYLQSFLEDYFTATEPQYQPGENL
Description: as §2

GCN2(h) = GCN2(h) (Homo sapiens, UniProt Q9P2K8); assay: Kinase Profiler; assay type: biochemical
Description: as §1

Hck(h) activated = Hck(h) activated (Homo sapiens, UniProt P08631); assay: Kinase Profiler; assay type: biochemical
Description: as §2

LTK(h) = LTK(h) (Homo sapiens, UniProt P29376); assay: Kinase Profiler; assay type: biochemical
Description: as §2

Mnk2(h) = Mnk2(h) (Homo sapiens, UniProt Q9HBH9); assay: Kinase Profiler; assay type: biochemical
Sequence of Mnk2(h) (Q9HBH9 whole entry): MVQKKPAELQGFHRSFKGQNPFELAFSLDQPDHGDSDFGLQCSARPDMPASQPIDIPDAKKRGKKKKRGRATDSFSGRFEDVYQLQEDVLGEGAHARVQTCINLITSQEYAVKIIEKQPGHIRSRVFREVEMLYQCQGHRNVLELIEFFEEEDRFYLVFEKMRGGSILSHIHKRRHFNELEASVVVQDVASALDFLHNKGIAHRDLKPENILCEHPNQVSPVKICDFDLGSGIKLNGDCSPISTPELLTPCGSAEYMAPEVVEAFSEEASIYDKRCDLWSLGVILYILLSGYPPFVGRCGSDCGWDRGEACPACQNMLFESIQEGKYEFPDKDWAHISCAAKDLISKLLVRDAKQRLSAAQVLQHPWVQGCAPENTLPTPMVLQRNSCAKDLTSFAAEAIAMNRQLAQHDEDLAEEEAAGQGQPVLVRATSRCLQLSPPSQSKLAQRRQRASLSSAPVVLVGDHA
Description: as §2

MRCKβ(h) = MRCKβ(h) (Homo sapiens, UniProt Q9Y5S2); assay: Kinase Profiler; assay type: biochemical
Description: as §2

NDR2(h) = NDR2(h) (Homo sapiens, UniProt Q9Y2H1); assay: Kinase Profiler; assay type: biochemical
Description: as §2

NEK2(h) = NEK2(h) (Homo sapiens, UniProt P51955); assay: Kinase Profiler; assay type: biochemical
Sequence of NEK2(h) (P51955 whole entry): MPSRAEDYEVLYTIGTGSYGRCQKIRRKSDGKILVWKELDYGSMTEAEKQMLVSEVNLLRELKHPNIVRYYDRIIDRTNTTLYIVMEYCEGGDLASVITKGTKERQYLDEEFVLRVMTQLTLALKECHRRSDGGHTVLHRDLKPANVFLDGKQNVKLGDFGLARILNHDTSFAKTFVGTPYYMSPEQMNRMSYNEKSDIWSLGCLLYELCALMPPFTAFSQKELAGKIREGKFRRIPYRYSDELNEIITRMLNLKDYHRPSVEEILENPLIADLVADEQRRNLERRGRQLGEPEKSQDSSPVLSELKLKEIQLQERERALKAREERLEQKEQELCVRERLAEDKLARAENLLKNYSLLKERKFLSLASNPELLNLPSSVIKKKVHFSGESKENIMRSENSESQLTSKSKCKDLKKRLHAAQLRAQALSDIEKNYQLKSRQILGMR
Description: as §2

PAK5(h) = PAK5(h) (Homo sapiens, UniProt Q9P286); assay: Kinase Profiler; assay type: biochemical
Sequence of PAK5(h) (Q9P286 whole entry): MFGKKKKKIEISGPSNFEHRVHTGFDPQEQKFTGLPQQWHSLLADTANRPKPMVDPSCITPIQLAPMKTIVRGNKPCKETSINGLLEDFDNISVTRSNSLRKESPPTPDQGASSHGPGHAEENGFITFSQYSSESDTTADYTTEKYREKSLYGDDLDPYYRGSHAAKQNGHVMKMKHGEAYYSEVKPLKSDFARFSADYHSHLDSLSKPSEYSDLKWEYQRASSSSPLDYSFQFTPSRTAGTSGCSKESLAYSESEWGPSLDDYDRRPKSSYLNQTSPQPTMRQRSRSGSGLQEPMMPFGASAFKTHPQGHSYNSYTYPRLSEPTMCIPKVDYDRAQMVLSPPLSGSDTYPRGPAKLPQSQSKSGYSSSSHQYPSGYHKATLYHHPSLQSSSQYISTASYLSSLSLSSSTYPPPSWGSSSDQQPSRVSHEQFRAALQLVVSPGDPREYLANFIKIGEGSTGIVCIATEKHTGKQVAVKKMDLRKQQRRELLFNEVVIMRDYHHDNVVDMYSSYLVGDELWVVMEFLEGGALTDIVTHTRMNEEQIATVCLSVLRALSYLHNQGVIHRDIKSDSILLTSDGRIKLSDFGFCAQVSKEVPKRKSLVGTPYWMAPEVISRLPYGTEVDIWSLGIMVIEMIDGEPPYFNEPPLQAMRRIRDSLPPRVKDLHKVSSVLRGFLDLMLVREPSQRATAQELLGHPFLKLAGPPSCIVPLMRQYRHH
Description: as §2

PAR-1Bα(h) = PAR-1Bα(h) (Homo sapiens, UniProt Q7KZI7); assay: Kinase Profiler; assay type: biochemical
Description: as §2

PKD3(h) = PKD3(h) (Homo sapiens, UniProt O94806); assay: Kinase Profiler; assay type: biochemical
Description: as §2

ROCK-I(h) = ROCK-I(h) (Homo sapiens, UniProt Q13464); assay: Kinase Profiler; assay type: biochemical
Description: as §1

SBK1(h) = SBK1(h) (Homo sapiens, UniProt Q52WX2); assay: Kinase Profiler; assay type: biochemical
Description: as §2

SLK(h) = SLK(h) (Homo sapiens, UniProt Q9H2G2); assay: Kinase Profiler; assay type: biochemical
Description: as §2

TSSK4(h) = TSSK4(h) (Homo sapiens, UniProt Q6SA08); assay: Kinase Profiler; assay type: biochemical
Sequence of TSSK4(h) (Q6SA08 whole entry): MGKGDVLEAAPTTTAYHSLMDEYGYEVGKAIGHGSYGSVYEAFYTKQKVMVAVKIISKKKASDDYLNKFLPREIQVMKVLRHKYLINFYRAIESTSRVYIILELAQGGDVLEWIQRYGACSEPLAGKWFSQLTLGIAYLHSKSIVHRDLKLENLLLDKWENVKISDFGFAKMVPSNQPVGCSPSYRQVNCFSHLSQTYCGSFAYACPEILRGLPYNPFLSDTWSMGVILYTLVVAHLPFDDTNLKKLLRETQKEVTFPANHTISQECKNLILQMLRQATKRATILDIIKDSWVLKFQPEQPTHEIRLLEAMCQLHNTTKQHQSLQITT
Description: as §2

VRK1(h) = VRK1(h) (Homo sapiens, UniProt Q99986); assay: Kinase Profiler; assay type: biochemical
Description: as §2

VRK2(h) = VRK2(h) (Homo sapiens, UniProt Q86Y07); assay: Kinase Profiler; assay type: biochemical
Sequence of VRK2(h) (Q86Y07 whole entry): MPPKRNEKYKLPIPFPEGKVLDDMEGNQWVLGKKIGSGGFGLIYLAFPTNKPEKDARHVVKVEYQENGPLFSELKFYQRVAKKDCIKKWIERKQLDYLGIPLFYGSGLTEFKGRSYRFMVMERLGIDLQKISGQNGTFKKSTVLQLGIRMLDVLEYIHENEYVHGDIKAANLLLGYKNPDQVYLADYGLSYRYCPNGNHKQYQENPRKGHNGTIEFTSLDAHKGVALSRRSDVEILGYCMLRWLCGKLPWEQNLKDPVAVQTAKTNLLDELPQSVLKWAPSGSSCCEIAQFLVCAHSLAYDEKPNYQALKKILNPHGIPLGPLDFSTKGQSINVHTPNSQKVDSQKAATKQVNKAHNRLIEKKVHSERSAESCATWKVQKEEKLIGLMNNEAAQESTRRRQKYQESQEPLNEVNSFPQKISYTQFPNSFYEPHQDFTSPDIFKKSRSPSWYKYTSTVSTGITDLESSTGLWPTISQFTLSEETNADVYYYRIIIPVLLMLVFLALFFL
Description: as §2

CDK13/cyclinK(h) = CDK13/cyclinK(h) (Homo sapiens, UniProt Q14004)
Description: as §1

Structure (SMILES): COc1ccc(OC)c(NS(=O)(=O)c2ccc(NC(=O)CCSc3ccc(C)cc3)cc2)c1 [Compound A41]
- invasion of CAF spheroids (breast CAF spheroids): anti-invasion property
- animal survival (CT26 cells): improvement in animal survival
- development of pulmonary metastases (CT26 cells): significantly reduced the development of pulmonary metastases
- Count Positive (# of wells) ([1]; 1.0E-04 M): 1
- Count Positive (# of wells) ([1]; 1.0E-05 M): 0
- Count Positive (# of wells) ([1]; 5.0E-05 M): 0
- Count Positive (# of wells) ([1]; 5.0E-06 M): 1
- % inh. (Adrenergic β2): 5%
- % inh. (Melanocortin MC1): 14%
- % inh. [2]: 84%
- Activity(%) (B-Raf(V599E)(h)): 87%
- Activity(%) (CaMKI(h)): 114%
- Activity(%) (CLK2(h)): 97%
- Activity(%) (Flt1(h)): 103%
- Activity(%) (Fyn(h)): 102%
- Activity(%) (GCN2(h)): 101%
- Activity(%) (Hck(h) activated): 102%
- Activity(%) (LTK(h)): 113%
- Activity(%) (Mnk2(h)): 107%
- Activity(%) (MRCKβ(h)): 102%
- Activity(%) (NDR2(h)): 112%
- Activity(%) (NEK2(h)): 118%
- Activity(%) (PAK5(h)): 105%
- Activity(%) (PAR-1Bα(h)): 111%
- Activity(%) (PKD3(h)): 104%
- Activity(%) (ROCK-I(h)): 101%
- Activity(%) (SBK1(h)): 101%
- Activity(%) (SLK(h)): 127%
- Activity(%) (TSSK4(h)): 103%
- Activity(%) (VRK1(h)): 103%
- Activity(%) (VRK2(h)): 110%
- Activity(%) (CDK13/cyclinK(h)): 97%
